# Test results reported in article PMC12610274, “Identification of Marrubiin as a Cathepsin C Inhibitor for Treating Rheumatoid Arthritis” (Molecules, 2025).
# How the values were obtained:
# [1] = tested on: IL-1β, TNF-α, MCP-1, CXCL2 in serum; assay: AIA model, serum cytokines by ELISA; type: in vivo, Sprague-Dawley rats; details: rat AIA, high-dose group (60 mg/kg)
# Procedure: Thirty 4-week-old male Sprague-Dawley rats (weighing 120–130 g) were randomly divided into 6 groups (5 rats per group) after 1 week of adaptive feeding, namely the normal group, model group, low-dose experimental group (15 mg/kg), medium-dose experimental group (30 mg/kg), high-dose experimental group (60 mg/kg), and positive control group (30 mg/kg). Starting from Day 0 of the experiment, rats in the administration groups and model group were injected intradermally with 0.1 mL of CFA into the left hind paw to induce AIA, while rats in the normal group were injected intradermally with an equal volume (0.1 mL) of normal saline as a control. After 13 consecutive days of feeding, rats treated with CFA successfully developed typical AIA symptoms. […] During the experiment, the body weight, mental state, activity ability, hair color changes, and paw appearance changes of the rats were observed and recorded daily. In addition, on Day 0 of the experiment (baseline period), the basic paw volume of all rats was accurately measured using a plethysmometer, which served as a reference standard for subsequent evaluation of inflammation severity. From Day 13 to Day 28 of the experiment, the paw volume of the rats was measured repeatedly every 3 days. The degree of paw swelling was quantified by calculating the change in paw volume relative to the baseline. […] The cytokine levels in serum were measured. […]
# CTSK = biological target: T1, CTSK (Homo sapiens, UniProt P43235); assay: Human recombinant cathepsins isolated enzyme assay, CTSK; type: biochemical; details: read-out: CTSK Enz (IC50: μM)
# T1 construct: purchased R&D Systems
# T1 sequence (P43235 115-329): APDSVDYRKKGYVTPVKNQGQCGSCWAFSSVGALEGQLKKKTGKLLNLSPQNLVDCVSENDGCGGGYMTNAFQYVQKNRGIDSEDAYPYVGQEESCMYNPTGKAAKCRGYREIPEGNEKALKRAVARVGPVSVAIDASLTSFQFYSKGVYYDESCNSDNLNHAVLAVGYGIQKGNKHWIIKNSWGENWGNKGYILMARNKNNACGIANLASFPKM
# From the text: The protocol for evaluating the inhibitory potency of compounds against other cathepsins referred to the CTSC activity assay. Recombinant human CTSB, CTSL, CTSS and CTSK for testing were also purchased from R&D Systems Biotechnology Company. Recombinant human Cat G, NE, and PR3 For testing were purchased from MedChemExpress. A multi-functional microplate reader was used to measure the absorption of Z-Leu-Arg-AMC at excitation/emission wavelengths of 380/460 nm to assess the activity changes of CTSB and CTSL, while the absorption of MCA-Arg-Pro-Lys-Pro-Val-Glu-NVAL-Trp-Arg-Lys(DNP)-NH2 at 320/405 nm was measured to evaluate the activity changes of CTSS and CTSK. Different assay buffers were prepared for diluting samples and measuring the activities of specific NSPs: a buffer containing 50 mM Tris and 750 mM NaCl (pH 7.4) was used for NE and PR3; a buffer containing 50 mM Tris, 750 mM NaCl, 5 mM EDTA (pH 7.4) was used for Cat G; and a buffer containing 25 mM MES, 50 mM NaCl, 5 mM DTT (pH 6.0) was used for CTSC. Synthetic substrates were employed to assess the activities of NSPs and CTSC: H-Gly-Arg-AMC for CTSC, N-MeSuc-Ala-Ala-Pro-Val-pNA for NE, aminobenzoyl-Val-Ala-Asp-Cys-Ala-Asp-Gln-ethylenediamine 2,4-dinitrophenyl for PR3, and N-Suc-Ala-Ala-Pro-Phe-pNA for Cat G. Each group of tests was independently repeated at least 3 times, and IC50 values were calculated using SPSS 10.0.
# [2] = Cytotoxicity assay, RAW264.7 cell line; type: cell-based; details: mouse, RAW264.7 cells
# Procedure: RAW264.7 cells and U937 cells in the logarithmic growth phase were counted and diluted, and the concentrations of the single-cell suspensions of the two types of cells were adjusted to 5 × 10^4 cells/mL and 3 × 10^4 cells/mL, respectively. After thorough mixing, the cells were seeded into a 96-well plate, with 100 μL of cell suspension added to each well. Prepare the working solution of test compounds using the corresponding medium as the solvent, with the concentration of working solution being 2 times the final test concentration (2.5 μM, 5 μM, 10 μM, 20 μM, and 40 μM). Twenty-four hours after cell seeding, the compound working solutions were added to the compound test wells, and the same volume of medium was added to the negative control wells, followed by continuous incubation for another 24 h. Only the wells with the same volume but without cells served as the blank control group. The CellTiter-Lumi™ luminescent cell viability assay kit (Beyotime Biotechnology, Shanghai, China, C0065XL) was used to detect cell viability according to the standard operating procedures. Each group of tests was independently repeated at least 3 times, and IC50 values were calculated using SPSS 10.0.
compound,measurement,setting,value
"C[C@@H]1C[C@H]2OC(=O)[C@@]3(C)CCC[C@@](C)([C@@H]23)[C@@]1(O)CCc1ccoc1 [Marrubiin, marrubiin]","serum levels of IL-1β, TNF-α, MCP-1, CXCL2",[1],significantly lower than those in model group and control group
same,IC50,CTSK,> 5 µM
same,IC50 at 24 h,[2],> 10 µM
